Results reported in PubChem BioAssay AID342 (DTP/NCI, 2004).
Values joined by “and” are separate entries in the source; they are usually repeats but may differ in a detail not shown here. Identical values can stand only once. Square brackets hold non-standard residues; d marks the D form. Peptide text beside a SMILES is read from it. Ac5c = NC1(C(=O)O)CCCC1

Tested on: Swiss mice, Sarcoma 180 sc, mean tumor weight T/C
Test: NCI In Vivo Anticancer Drug Screen. Data for tumor model Sarcoma 180 (subcutaneous) in Swiss mice
Conditions: endpoint: mean tumor weight, higher = larger tumour
Outline: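 Transplantable tumors were established in mice, compound was given, then survival or tumor size was recorded. The treated value was divided by the vehicle-control value.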

[1] = dose: 20.0 mg/kg/injection, schedule: Q01DX007 (ip), vehicle: carboxymethylcellulose (CMC)
[2] = dose: 50.0 mg/kg/injection, schedule: Q#A X014 (sc), vehicle: steriod suspending solution
[3] = dose: 66.0 mg/kg/injection, schedule: Q01DX007 (ip), vehicle: carboxymethylcellulose (CMC)

## Cn1cc(F)c(=O)[nH]c1=O
dose: 10.0 mg/kg/injection, schedule: Q01DX007 (ip), vehicle: carboxymethylcellulose (CMC)
  T/C: 99 % of control and 112 % of control
[1]
  T/C: 88 % of control and 94 % of control
dose: 80.0 mg/kg/injection, schedule: Q01DX007 (ip), vehicle: carboxymethylcellulose (CMC)
  T/C: 95 % of control

## O=C1c2ccccc2-c2c3c(cc4ccnc1c24)OCO3
dose: 45.0 mg/kg/injection, schedule: Q01DX007 (ip), vehicle: saline
  T/C: 81 % of control
dose: 65.0 mg/kg/injection, schedule: Q01DX007 (ip), vehicle: saline
  T/C: 67 % of control
dose: 100.0 mg/kg/injection, schedule: Q01DX007 (ip), vehicle: saline
  T/C: 75 % of control
dose: 150.0 mg/kg/injection, schedule: Q01DX007 (ip), vehicle: saline
  T/C: 47 % of control

## C[C@]12CCC(=O)C[C@H]1CC[C@@H]1[C@@H]2C(=O)C[C@@]2(C)[C@H]1CC[C@]2(C)O
dose: 5.0 mg/kg/injection, schedule: Q#A X014 (sc), vehicle: steriod suspending solution
  T/C: 72 % of control
[2]
  T/C: 78 % of control
dose: 150.0 mg/kg/injection, schedule: Q#A X014 (sc), vehicle: steriod suspending solution
  T/C: 110 % of control

## CC[C@@H](O)C[C@H]1CCC[C@@]2(C[C@@H]3OC(=O)/C=C/[C@@](C)(O)[C@@H](O)[C@H](C)[C@@H](O)[C@H](OC4CCC(N(C)C)C(C)O4)[C@@H](O)[C@](C)(O)CCCCC/C=C/[C@@H]4CC(C)(C)O[C@@]4(O)C[C@H](O2)[C@H]3C)O1 (some centres not stated)
dose: 0.15 mg/kg/injection, schedule: Q01DX007 (sc), vehicle: steriod suspending solution
  T/C: 95 % of control
dose: 0.23 mg/kg/injection, schedule: Q01DX007 (sc), vehicle: steriod suspending solution
  T/C: 113 % of control
dose: 0.34 mg/kg/injection, schedule: Q01DX007 (sc), vehicle: steriod suspending solution
  T/C: 118 % of control

## NC1(C(=O)NC2(C(=O)O)CCCC2)CCCC1 (H-[Ac5c]-[Ac5c]-OH)
dose: 7.5 mg/kg/injection, schedule: Q#A X014 (ip), vehicle: carboxymethylcellulose (CMC)
  T/C: 66 % of control
dose: 15.0 mg/kg/injection, schedule: Q#A X014 (ip), vehicle: carboxymethylcellulose (CMC)
  T/C: 65 % of control
dose: 30.0 mg/kg/injection, schedule: Q#A X014 (ip), vehicle: carboxymethylcellulose (CMC)
  T/C: 58 % of control
dose: 60.0 mg/kg/injection, schedule: Q#A X014 (ip), vehicle: carboxymethylcellulose (CMC)
  T/C: 32 % of control

## CCOC(=O)Sc1ncnc2nc[nH]c12
dose: 1.7 mg/kg/injection, schedule: Q01DX007 (ip), vehicle: carboxymethylcellulose (CMC)
  T/C: 109 % of control
dose: 3.5 mg/kg/injection, schedule: Q01DX007 (ip), vehicle: carboxymethylcellulose (CMC)
  T/C: 84 % of control
dose: 7.0 mg/kg/injection, schedule: Q01DX007 (ip), vehicle: carboxymethylcellulose (CMC)
  T/C: 102 % of control
dose: 14.0 mg/kg/injection, schedule: Q01DX007 (ip), vehicle: carboxymethylcellulose (CMC)
  T/C: 41 % of control
dose: 28.0 mg/kg/injection, schedule: Q01DX007 (ip), vehicle: carboxymethylcellulose (CMC)
  T/C: 46 % of control
dose: 44.0 mg/kg/injection, schedule: Q01DX007 (ip), vehicle: carboxymethylcellulose (CMC)
  T/C: 56 % of control
dose: 56.0 mg/kg/injection, schedule: Q01DX007 (ip), vehicle: carboxymethylcellulose (CMC)
  T/C: 30 % of control
[3]
  T/C: 61 % of control
dose: 100.0 mg/kg/injection, schedule: Q01DX007 (ip), vehicle: carboxymethylcellulose (CMC)
  T/C: 35 % of control
dose: 112.0 mg/kg/injection, schedule: Q01DX007 (ip), vehicle: carboxymethylcellulose (CMC)
  T/C: 22 % of control
dose: 150.0 mg/kg/injection, schedule: Q01DX007 (ip), vehicle: carboxymethylcellulose (CMC)
  T/C: 30 % of control

## COc1ccc(-c2cc(=O)c3c(O)cc(OC)cc3o2)cc1
dose: 220.0 mg/kg/injection, schedule: Q01DX007 (ip), vehicle: saline
  T/C: 76 % of control
dose: 330.0 mg/kg/injection, schedule: Q01DX007 (ip), vehicle: saline
  T/C: 66 % of control
dose: 500.0 mg/kg/injection, schedule: Q01DX007 (ip), vehicle: saline
  T/C: 81 % of control

## C[C@H]1C[C@@H]2[C@H]([C@@H](O)C[C@@]3(C)[C@H]2CC[C@]3(O)C(=O)CO)[C@@]2(C)C=CC(=O)C=C12
dose: 6.25 mg/kg/injection, schedule: Q#A X014 (sc), vehicle: steriod suspending solution
  T/C: 82 % of control
dose: 12.5 mg/kg/injection, schedule: Q01DX007 (sc), vehicle: water
  T/C: 45 % of control
dose: 12.5 mg/kg/injection, schedule: Q#A X014 (sc), vehicle: steriod suspending solution
  T/C: 40 % of control
dose: 25.0 mg/kg/injection, schedule: Q01DX007 (sc), vehicle: water
  T/C: 41 % of control
dose: 25.0 mg/kg/injection, schedule: Q#A X014 (sc), vehicle: steriod suspending solution
  T/C: 33 % of control
dose: 50.0 mg/kg/injection, schedule: Q01DX007 (sc), vehicle: water
  T/C: 39 % of control
[2]
  T/C: 27 % of control
dose: 100.0 mg/kg/injection, schedule: Q01DX007 (sc), vehicle: water
  T/C: 18 % of control
dose: 100.0 mg/kg/injection, schedule: Q#A X014 (sc), vehicle: steriod suspending solution
  T/C: 17 % of control

## O=C1c2cc(Cl)ccc2-c2c(Cl)cc(Cl)cc21
dose: 25.0 mg/kg/injection, schedule: Q01DX007 (ip), vehicle: methylcellulose (MC)
  T/C: 100 % of control
dose: 43.0 mg/kg/injection, schedule: Q01DX007 (ip), vehicle: carboxymethylcellulose (CMC)
  T/C: 76 % of control
[3]
  T/C: 65 % of control
dose: 98.0 mg/kg/injection, schedule: Q01DX007 (ip), vehicle: carboxymethylcellulose (CMC)
  T/C: 44 % of control and 50 % of control
dose: 147.0 mg/kg/injection, schedule: Q01DX007 (ip), vehicle: carboxymethylcellulose (CMC)
  T/C: 36 % of control
dose: 149.0 mg/kg/injection, schedule: Q01DX007 (ip), vehicle: carboxymethylcellulose (CMC)
  T/C: 59 % of control
dose: 222.0 mg/kg/injection, schedule: Q01DX007 (ip), vehicle: carboxymethylcellulose (CMC)
  T/C: 30 % of control and 44 % of control
dose: 222.0 mg/kg/injection, schedule: Q01DX007 (ip), vehicle: other
  T/C: 48 % of control
dose: 333.0 mg/kg/injection, schedule: Q01DX007 (ip), vehicle: carboxymethylcellulose (CMC)
  T/C: 25 % of control and 32 % of control
dose: 333.0 mg/kg/injection, schedule: Q01DX007 (ip), vehicle: other
  T/C: 39 % of control
dose: 500.0 mg/kg/injection, schedule: Q01DX007 (ip), vehicle: carboxymethylcellulose (CMC)
  T/C: 22 % of control
dose: 750.0 mg/kg/injection, schedule: Q01DX007 (ip), vehicle: other
  T/C: 27 % of control

## Nc1nc2ncc(CNc3ccc(C(=O)NC(CCC(=O)O)C(=O)O)cc3)nc2c(=O)[nH]1 (configuration not stated)
dose: 6.31 mg/kg/injection, schedule: Q01DX007 (ip), vehicle: carboxymethylcellulose (CMC)
  T/C: 84 % of control
dose: 12.62 mg/kg/injection, schedule: Q01DX007 (ip), vehicle: carboxymethylcellulose (CMC)
  T/C: 76 % of control
dose: 25.25 mg/kg/injection, schedule: Q01DX007 (ip), vehicle: carboxymethylcellulose (CMC)
  T/C: 56 % of control
dose: 50.5 mg/kg/injection, schedule: Q01DX007 (ip), vehicle: carboxymethylcellulose (CMC)
  T/C: 74 % of control

## O=[n+]1c2c(n([O-])c3ccccc31)-c1cccc3cccc-2c13
dose: 41.0 mg/kg/injection, schedule: Q01DX007 (ip), vehicle: carboxymethylcellulose (CMC)
  T/C: 69 % of control
dose: 210.0 mg/kg/injection, schedule: Q01DX007 (ip), vehicle: carboxymethylcellulose (CMC)
  T/C: 10 % of control
dose: 315.0 mg/kg/injection, schedule: Q01DX007 (ip), vehicle: carboxymethylcellulose (CMC)
  T/C: 25 % of control

## CCCCn1cnc2c(=S)nc(N)[nH]c21
dose: 1.65 mg/kg/injection, schedule: Q#A X014 (ip), vehicle: methylcellulose (MC)
  T/C: 82 % of control
dose: 2.5 mg/kg/injection, schedule: Q#A X014 (ip), vehicle: methylcellulose (MC)
  T/C: 93 % of control
dose: 3.75 mg/kg/injection, schedule: Q#A X014 (ip), vehicle: methylcellulose (MC)
  T/C: 62 % of control
dose: 5.5 mg/kg/injection, schedule: Q#A X014 (ip), vehicle: methylcellulose (MC)
  T/C: 49 % of control

## CC(C)(C)C(=O)/C=C/c1ccc([N+](=O)[O-])cc1
dose: 50.0 mg/kg/injection, schedule: Q#A X014 (ip), vehicle: methylcellulose (MC)
  T/C: 92 % of control
dose: 187.5 mg/kg/injection, schedule: Q#A X014 (ip), vehicle: methylcellulose (MC)
  T/C: 70 % of control

## CC(=O)OC(C)(C)/C=C/C(=O)[C@](C)(O)[C@H]1[C@H](O)C[C@@]2(C)[C@@H]3CC=C4[C@@H](C=C(O)C(=O)C4(C)C)[C@]3(C)C(=O)C[C@]12C
dose: 0.4 mg/kg/injection, schedule: Q01DX007 (ip), vehicle: carboxymethylcellulose (CMC)
  T/C: 54 % of control
dose: 0.8 mg/kg/injection, schedule: Q01DX007 (ip), vehicle: carboxymethylcellulose (CMC)
  T/C: 29 % of control
dose: 1.6 mg/kg/injection, schedule: Q01DX007 (ip), vehicle: carboxymethylcellulose (CMC)
  T/C: 94 % of control
dose: 3.2 mg/kg/injection, schedule: Q01DX007 (ip), vehicle: carboxymethylcellulose (CMC)
  T/C: 88 % of control

## Nc1nc(=S)c2ncn(C3CCCO3)c2[nH]1 (configuration not stated)
[1]
  T/C: 43 % of control and 46 % of control
dose: 45.0 mg/kg/injection, schedule: Q01DX007 (ip), vehicle: carboxymethylcellulose (CMC)
  T/C: 18 % of control and 38 % of control
dose: 90.0 mg/kg/injection, schedule: Q01DX007 (ip), vehicle: carboxymethylcellulose (CMC)
  T/C: 9 % of control
